{
  "source": "ChEMBL document CHEMBL3992542",
  "about": "“Synthesis of cholesteryl doxorubicin and its anti-cancer activity” (Bioorg Med Chem Lett, 2017)",
  "key": {"[1]": {"assay": "Drug uptake in nucleus of human A549 cells at 5 uM after 2 hrs by fluorescence microscopic method", "format": "ADME, cell-based", "details": "a549, 2 h"}, "[2]": {"assay": "Drug uptake in nucleus of human HeLa cells at 5 uM after 24 hrs by fluorescence microscopic method", "format": "ADME, cell-based"}, "A549 [3]": {"system": "A549", "assay": "Cytotoxicity against human A549 cells assessed as decrease in cell viability treated for 2 hrs measured after 48 hrs by MTT assay", "format": "functional, cell-based"}, "[4]": {"assay": "Drug uptake in human HeLa cells at 5 uM after 2 hrs by flow cytometric analysis", "format": "ADME, cell-based"}, "HeLa [5]": {"system": "HeLa", "assay": "Cytotoxicity against human HeLa cells assessed as decrease in cell viability treated for 2 hrs measured after 48 hrs by MTT assay", "format": "functional, cell-based"}, "[6]": {"assay": "Drug uptake in nucleus of human A549 cells at 5 uM after 24 hrs by fluorescence microscopic method", "format": "ADME, cell-based", "details": "a549, 24 h"}, "MCF7 [7]": {"system": "MCF7", "assay": "Cytotoxicity against human MCF7 cells assessed as decrease in cell viability treated for 2 hrs measured after 48 hrs by MTT assay", "format": "functional, cell-based"}, "[8]": {"assay": "Drug uptake in human HeLa cells at 5 uM after 24 hrs by flow cytometric analysis", "format": "ADME, cell-based"}, "[9]": {"assay": "Drug uptake in nucleus of human HeLa cells at 5 uM after 2 hrs by fluorescence microscopic method", "format": "ADME, cell-based"}, "[10]": {"assay": "Drug uptake in nucleus of human MDA-MB-231 cells at 5 uM after 24 hrs by fluorescence microscopic method", "format": "ADME"}, "[11]": {"assay": "Drug uptake in human MDA-MB-231 cells at 5 uM after 2 hrs by flow cytometric analysis", "format": "ADME, cell-based", "details": "mda-mb-231, 2 h"}, "MDA-MB-231 [12]": {"system": "MDA-MB-231", "assay": "Cytotoxicity against human MDA-MB-231 cells assessed as decrease in cell viability treated for 2 hrs measured after 48 hrs by MTT assay", "format": "functional, cell-based"}, "[13]": {"assay": "Drug uptake in nucleus of human MDA-MB-231 cells at 5 uM after 2 hrs by fluorescence microscopic method", "format": "ADME"}, "[14]": {"assay": "Drug uptake in human MDA-MB-231 cells at 5 uM after 24 hrs by flow cytometric analysis", "format": "ADME, cell-based", "details": "mda-mb-231, 24 h"}, "HeLa [15]": {"system": "HeLa", "assay": "Cytotoxicity against human HeLa cells assessed as decrease in cell viability at 5 uM treated for 2 hrs measured after 48 hrs by MTT assay", "format": "functional, cell-based"}, "MDA-MB-231 [16]": {"system": "MDA-MB-231", "assay": "Cytotoxicity against human MDA-MB-231 cells assessed as decrease in cell viability at 10 uM treated for 2 hrs measured after 48 hrs by MTT assay", "format": "functional, cell-based"}, "A549 [17]": {"system": "A549", "assay": "Cytotoxicity against human A549 cells assessed as decrease in cell viability at 10 uM treated for 2 hrs measured after 48 hrs by MTT assay", "format": "functional, cell-based"}, "MCF7 [18]": {"system": "MCF7", "assay": "Cytotoxicity against human MCF7 cells assessed as decrease in cell viability at 5 uM treated for 2 hrs measured after 48 hrs by MTT assay", "format": "functional, cell-based"}, "[19]": {"assay": "Drug uptake in cytoplasm of human MDA-MB-231 cells at 5 uM after 2 hrs by fluorescence microscopic method", "format": "ADME"}, "[20]": {"assay": "Drug uptake in cytoplasm of human HeLa cells at 5 uM after 2 hrs by fluorescence microscopic method", "format": "ADME, cell-based"}, "[21]": {"assay": "Drug uptake in cytoplasm of human A549 cells at 5 uM after 2 hrs by fluorescence microscopic method", "format": "ADME, cell-based", "details": "a549, 2 h"}},
  "note": "pIC50: −log10 of the molar value. The source made the active and inactive calls. The rule behind the calls is not given here.",
  "data": [
    {"smiles": "COc1cccc2c1C(=O)c1c(O)c3c(c(O)c1C2=O)C[C@@](O)(C(=O)CO)C[C@@H]3O[C@H]1C[C@H](N)[C@H](O)[C@H](C)O1", "note": "[DOXORUBICIN]", "values": [
      {"measurement": "Drug uptake", "setting": "[1]", "value": "Active"},
      {"measurement": "Drug uptake", "setting": "[2]", "value": "Not Active"},
      {"measurement": "pIC50", "setting": "A549 [3]", "value": 4.93},
      {"measurement": "Drug uptake", "setting": "[4]", "value": "Active"},
      {"measurement": "pIC50", "setting": "HeLa [5]", "value": 5.14},
      {"measurement": "Drug uptake", "setting": "[6]", "value": "Not Active"},
      {"measurement": "pIC50", "setting": "MCF7 [7]", "value": 5.36},
      {"measurement": "Drug uptake", "setting": "[8]", "value": "Not Active"},
      {"measurement": "Drug uptake", "setting": "[9]", "value": "Active"},
      {"measurement": "Drug uptake", "setting": "[10]", "value": "Not Active"},
      {"measurement": "Drug uptake", "setting": "[11]", "value": "Active"},
      {"measurement": "pIC50", "setting": "MDA-MB-231 [12]", "value": 4.83},
      {"measurement": "Drug uptake", "setting": "[13]", "value": "Active"},
      {"measurement": "Drug uptake", "setting": "[14]", "value": "Not Active"}
    ]},
    {"smiles": "COc1cccc2c1C(=O)c1c(O)c3c(c(O)c1C2=O)C[C@@](O)(C(=O)CO)C[C@@H]3O[C@H]1C[C@H](NC(=O)CCC(=O)NCCCO[C@H]2CC[C@@]3(C)C(=CC[C@H]4[C@@H]5CC[C@H]([C@H](C)CCCC(C)C)[C@@]5(C)CC[C@@H]43)C2)[C@H](O)[C@H](C)O1", "values": [
      {"measurement": "Activity", "setting": "HeLa [15]", "value": "inactive"},
      {"measurement": "Activity", "setting": "MDA-MB-231 [16]", "value": "inactive"},
      {"measurement": "Activity", "setting": "A549 [17]", "value": "inactive"},
      {"measurement": "Activity", "setting": "MCF7 [18]", "value": "inactive"}
    ]},
    {"smiles": "COc1cccc2c1C(=O)c1c(O)c3c(c(O)c1C2=O)C[C@@](O)(C(=O)COC(=O)CCC(=O)NCCCO[C@H]1CC[C@@]2(C)C(=CC[C@H]4[C@@H]5CC[C@H]([C@H](C)CCCC(C)C)[C@@]5(C)CC[C@@H]42)C1)C[C@@H]3O[C@H]1C[C@H](N)[C@H](O)[C@H](C)O1", "values": [
      {"measurement": "Drug uptake", "setting": "[2]", "value": "Active"},
      {"measurement": "pIC50", "setting": "A549 [3]", "value": 4.95},
      {"measurement": "pIC50", "setting": "HeLa [5]", "value": 4.55},
      {"measurement": "Drug uptake", "setting": "[6]", "value": "Active"},
      {"measurement": "Drug uptake", "setting": "[19]", "value": "Active"},
      {"measurement": "pIC50", "setting": "MCF7 [7]", "value": 5.00},
      {"measurement": "Drug uptake", "setting": "[8]", "value": "Active"},
      {"measurement": "Drug uptake", "setting": "[10]", "value": "Active"},
      {"measurement": "Drug uptake", "setting": "[20]", "value": "Active"},
      {"measurement": "pIC50", "setting": "MDA-MB-231 [12]", "value": 4.67},
      {"measurement": "Drug uptake", "setting": "[21]", "value": "Active"},
      {"measurement": "Activity", "setting": "HeLa [15]", "value": "Active"},
      {"measurement": "Activity", "setting": "MDA-MB-231 [16]", "value": "Active"},
      {"measurement": "Drug uptake", "setting": "[14]", "value": "Active"},
      {"measurement": "Activity", "setting": "A549 [17]", "value": "Active"},
      {"measurement": "Activity", "setting": "MCF7 [18]", "value": "Active"}
    ]},
    {"smiles": "COc1cccc2c1C(=O)c1c(O)c3c(c(O)c1C2=O)C[C@@](O)(C(=O)CO)C[C@@H]3O[C@H]1C[C@H](NC(=O)CCC(=O)NCCCNC(=O)O[C@H]2CC[C@@]3(C)C(=CC[C@H]4[C@@H]5CC[C@H]([C@H](C)CCCC(C)C)[C@@]5(C)CC[C@@H]43)C2)[C@H](O)[C@H](C)O1", "values": [
      {"measurement": "Activity", "setting": "HeLa [15]", "value": "inactive"},
      {"measurement": "Activity", "setting": "MDA-MB-231 [16]", "value": "inactive"},
      {"measurement": "Activity", "setting": "A549 [17]", "value": "inactive"},
      {"measurement": "Activity", "setting": "MCF7 [18]", "value": "inactive"}
    ]},
    {"smiles": "COc1cccc2c1C(=O)c1c(O)c3c(c(O)c1C2=O)C[C@@](O)(C(=O)COC(=O)CCC(=O)NCCCNC(=O)O[C@H]1CC[C@@]2(C)C(=CC[C@H]4[C@@H]5CC[C@H]([C@H](C)CCCC(C)C)[C@@]5(C)CC[C@@H]42)C1)C[C@@H]3O[C@H]1C[C@H](N)[C@H](O)[C@H](C)O1", "values": [
      {"measurement": "pIC50", "setting": "A549 [3]", "value": 5.10},
      {"measurement": "pIC50", "setting": "HeLa [5]", "value": 5.10},
      {"measurement": "pIC50", "setting": "MCF7 [7]", "value": 5.01},
      {"measurement": "Drug uptake", "setting": "[8]", "value": "Not Active"},
      {"measurement": "pIC50", "setting": "MDA-MB-231 [12]", "value": 4.79},
      {"measurement": "Activity", "setting": "HeLa [15]", "value": "Active"},
      {"measurement": "Activity", "setting": "MDA-MB-231 [16]", "value": "Active"},
      {"measurement": "Drug uptake", "setting": "[14]", "value": "Not Active"},
      {"measurement": "Activity", "setting": "A549 [17]", "value": "Active"},
      {"measurement": "Activity", "setting": "MCF7 [18]", "value": "Active"}
    ]}
  ]
}
